Laboratory results reported in patent US12358915B2, “METTL3 inhibitory compounds” (STORM THERAPEUTICS LTD., priority 2019, dated 2025).
pIC50: −log10 of the molar value.

What follows are compounds tested against T1, METTL3/14 (Homo sapiens, UniProt Q86U44) (assay: METTL3/14 methyltransferase assay (METTL3_14 RFMS, RapidFire mass spectrometry)). Conditions: 5 nM METTL3/14, 0.2 μM RNA substrate, 0.5 μM SAM; lower limit of the assay IC50=5 nM; Compounds 63-265; read-out: METTL3_14 RFMS IC50.
T1 construct: The enzyme used was full-length his-tagged METTL3; His; made in house
Assay type: biochemical
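Note: recombinant His-tagged METTL3 with FLAG-tagged METTL14 from baculovirus, SAH product quantified by mass spectrometry against isotope-labelled internal standards, 60 min at room temperature, scaled between no-RNA and DMSO-only wells.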

T1 sequence (Q86U44 whole entry): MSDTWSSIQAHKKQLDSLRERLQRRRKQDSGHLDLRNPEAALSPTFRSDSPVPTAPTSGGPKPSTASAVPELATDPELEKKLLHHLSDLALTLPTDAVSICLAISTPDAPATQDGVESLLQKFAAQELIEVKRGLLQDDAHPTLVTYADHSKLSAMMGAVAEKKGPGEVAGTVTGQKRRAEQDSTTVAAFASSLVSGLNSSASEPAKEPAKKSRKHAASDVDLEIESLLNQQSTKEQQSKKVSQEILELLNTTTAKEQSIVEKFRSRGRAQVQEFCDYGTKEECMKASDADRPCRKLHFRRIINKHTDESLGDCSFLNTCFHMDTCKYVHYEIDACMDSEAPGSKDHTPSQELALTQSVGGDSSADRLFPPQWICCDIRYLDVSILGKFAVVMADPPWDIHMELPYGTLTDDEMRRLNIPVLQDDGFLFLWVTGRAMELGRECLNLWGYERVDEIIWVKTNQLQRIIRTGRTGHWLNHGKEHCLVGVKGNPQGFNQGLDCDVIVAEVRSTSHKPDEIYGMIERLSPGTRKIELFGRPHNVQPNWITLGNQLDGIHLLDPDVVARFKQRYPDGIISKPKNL
T1 sequence (Q9HCE5 whole entry partner): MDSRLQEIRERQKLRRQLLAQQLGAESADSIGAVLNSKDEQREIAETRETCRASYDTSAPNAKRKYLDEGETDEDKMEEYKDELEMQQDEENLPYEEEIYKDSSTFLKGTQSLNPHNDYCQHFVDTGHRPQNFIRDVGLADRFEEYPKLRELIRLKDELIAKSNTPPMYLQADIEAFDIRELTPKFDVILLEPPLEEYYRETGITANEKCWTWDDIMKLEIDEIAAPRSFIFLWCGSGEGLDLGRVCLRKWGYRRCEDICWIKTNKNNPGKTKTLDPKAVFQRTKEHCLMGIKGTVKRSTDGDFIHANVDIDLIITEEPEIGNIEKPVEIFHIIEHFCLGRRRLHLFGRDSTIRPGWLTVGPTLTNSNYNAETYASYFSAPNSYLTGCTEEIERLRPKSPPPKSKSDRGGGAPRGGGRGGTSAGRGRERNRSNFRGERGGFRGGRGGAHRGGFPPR

Row | pIC50 | Structure (SMILES)
1 | 5.18 | O=C(NCc1cn2cc(C(F)(F)F)ccc2n1)c1cc(=O)n2ccccc2n1 [Compound 65, 4-oxo-N-{[6-(trifluoromethyl)imidazo[1,2-a]pyridin-2-yl]methyl}-4H-pyrido[1,2-a]pyrimidine-2-carboxamide]
2 | 5.87 | Cc1ccc2nc(Cc3nnc(-c4cccc5[nH]ncc45)s3)cn2c1 [Compound 66, 4-[5-({6-methylimidazo[1,2-a]pyridin-2-yl}methyl)-1,3,4-thiadiazol-2-yl]-1H-indazole]
3 | 5.09 | CC(C)(C)OC(=O)NCCc1ccc2nc(CNC(=O)c3cc(=O)n4ccccc4n3)cn2c1 [Compound 67, tert-butyl N-(2-{2-[({4-oxo-4H-pyrido[1,2-a]pyrimidin-2-yl}formamido)methyl]imidazo [1,2-a]pyridin-6-yllethyl) carbamate]
4 | 5.29 | O=C(NCc1ccccc1)c1ccc2nc(CNC(=O)c3cc(=O)n4ccccc4n3)cn2c1 [Compound 68, N-benzyl-2-[({4-oxo-4H-pyrido[1,2-a]pyrimidin-2-yl}formamido)methyl]imidazo [1,2-a]pyridine-6-carboxamide]
5 | 5.87 | Cc1ccc2nc(Cn3cc(-c4cccc5[nH]ncc45)nn3)cn2c1 [Compound 69, 4-[1-({6-methylimidazo[1,2-a]pyridin-2-yl}methyl)-1H-1,2,3-triazol-4-yl]-1H-indazole]
6 | 6.84 | O=C(NCc1cn2cc(CNCc3cccnc3)ccc2n1)c1cc(=O)n2ccccc2n1 [Compound 70, 4-oxo-N-{[6-({[(pyridin-3-yl)methyl]amino}methyl)imidazo [1,2-a]pyridin-2-yl]methyl}-4H-pyrido[1,2-a]pyrimidine-2-carboxamide]
7 | 6.69 | COc1ccc(CNCc2ccc3nc(CNC(=O)c4cc(=O)n5ccccc5n4)cn3c2)cc1 [Compound 71, N-{[6-({[(4-methoxyphenyl)methyl]amino}methyl)imidazo [1,2-a]pyridin-2-yl]methyl}-4-oxo-4H-pyrido [1,2-a]pyrimidine-2-carboxamide]
8 | 7.32 | C[C@@H](NCc1ccc2nc(CNC(=O)c3cc(=O)n4ccccc4n3)cn2c1)c1ccccc1 [Compound 75, 4-oxo-N-{[6-({[(1R)-1-phenylethyl]amino}methyl)imidazo[1,2-a]pyridin-2-yl]methyl}-4H-pyrido[1,2-a]pyrimidine-2-carboxamide]
9 | 7.52 | C[C@H](NCc1ccc2nc(CNC(=O)c3cc(=O)n4ccccc4n3)cn2c1)c1ccccc1 [Compound 76, 4-oxo-N-{[6-({[(1S)-1-phenylethyl]amino}methyl)imidazo [1,2-a]pyridin-2-yl]methyl}-4H-pyrido[1,2-a] pyrimidine-2-carboxamide]
10 | 7.08 | O=C(NCc1cn2cc(CNCc3ccccc3F)ccc2n1)c1cc(=O)n2ccccc2n1 [Compound 77, N-{[6-({[(2-fluorophenyl)methyl]amino}methyl)imidazo [1,2-a]pyridin-2-yl]methyl}-4-oxo-4H-pyrido[1,2-a]pyrimidine-2-carboxamide]
11 | 7.20 | O=C(NCc1cn2cc(CNCc3cccc(F)c3)ccc2n1)c1cc(=O)n2ccccc2n1 [Compound 79, N-{[6-({[(3-fluorophenyl)methyl]amino}methyl)imidazo[1,2-a]pyridin-2-yl]methyl}-4-oxo-4H-pyrido [1,2-a]pyrimidine-2-carboxamide]
12 | 7.78 | O=C(NCc1cn2cc(CNCc3ccc(F)cc3)ccc2n1)c1cc(=O)n2ccccc2n1 [Compound 80, N-{[6-({[(4-fluorophenyl)methyl]amino}methyl)imidazo [1,2-a]pyridin-2-yl]methyl}-4-oxo-4H-pyrido[1,2-a]pyrimidine-2-carboxamide]
13 | 7.56 | O=C(NCc1cn2cc(CNCCCC(F)(F)F)ccc2n1)c1cc(=O)n2ccccc2n1 [Compound 81, 4-oxo-N-[(6-{[(4,4,4-trifluorobutyl)amino]methyl}imidazo[1,2-a]pyridin-2-yl)methyl]-4H-pyrido[1,2-a]pyrimidine-2-carboxamide]
14 | 6.45 | O=C(NCc1cn2cc(CNCC3CCOCC3)ccc2n1)c1cc(=O)n2ccccc2n1 [Compound 82, N-{[6-({[(oxan-4-yl)methyl]amino}methyl)imidazo[1,2-a]pyridin-2-yl]methyl}-4-oxo-4H-pyrido[1,2-a] pyrimidine-2-carboxamide]
15 | 7.44 | O=C(NCc1cn2cc(CNCC3CC3)ccc2n1)c1cc(=O)n2ccccc2n1 [Compound 84, N-[(6-{[(cyclopropyl-methyl)amino]methyl}imidazo [1,2-a]pyridin-2-yl)methyl]-4-oxo-4H-pyrido [1,2-a]pyrimidine-2-carboxamide]
16 | 7.59 | O=C(NCc1cn2cc(CNCCC(F)(F)F)ccc2n1)c1cc(=O)n2ccccc2n1 [Compound 85, 4-oxo-N-[(6-{[(3,3,3-trifluoropropyl)amino]methyl}imidazo[1,2-a]pyridin-2-yl)methyl]-4H-pyrido[1,2-a]pyrimidine-2-carboxamide]
17 | 7.64 | O=C(NCc1cn2cc(CNC3CCCCC3)ccc2n1)c1cc(=O)n2ccccc2n1 [Compound 86, N-({6-[(cyclohexyl-amino)methyl]imidazo[1,2-a]pyridin-2-yl}methyl)-4-oxo-4H-pyrido[1,2-a]pyrimidine-2-carboxamide]
18 | 6.94 | O=C(NCc1cn2cc(CNCC3CCCCO3)ccc2n1)c1cc(=O)n2ccccc2n1 (stereo not drawn) [Compound 88, N-{[6-({[(oxan-2-yl)methyl]amino}methyl)imidazo[1,2-a]pyridin-2-yl]methyl}-4-oxo-4H-pyrido[1,2-a] pyrimidine-2-carboxamide]
19 | 7.10 | O=C(NCc1cn2cc(CNCC3CCCOC3)ccc2n1)c1cc(=O)n2ccccc2n1 (stereo not drawn) [Compound 90, N-{[6-({[(oxan-3-yl)methyl]amino}methyl)imidazo [1,2-a]pyridin-2-yl]methyl}-4-oxo-4H-pyrido[1,2-a] pyrimidine-2-carboxamide]
20 | 7.24 | O=C(NCc1cn2cc(CNCC3(F)CCCCC3)ccc2n1)c1cc(=O)n2ccccc2n1 [Compound 91, N-{[6-({[(1-fluorocyclohexyl)methyl]amino}methyl)imidazo [1,2-a]pyridin-2-yl]methyl}-4-oxo-4H-pyrido[1,2-a]pyrimidine-2-carboxamide]
21 | 6.95 | O=C(NCc1cn2cc(CNCc3cccc(C4CC4)c3)ccc2n1)c1cc(=O)n2ccccc2n1 [Compound 92, N-{[6-({[(3-cyclopropyl-phenyl)methyl]amino}methyl)imidazo[1,2-a]pyridin-2-yl]methyl}-4-oxo-4H-pyrido[1,2-a]pyrimidine-2-carboxamide]
22 | 7.89 | CC(C)(C)CCNCc1ccc2nc(CNC(=O)c3cc(=O)n4ccccc4n3)cn2c1 [Compound 93, N-[(6-{[(3,3-dimethylbutyl)amino]methyl}imidazo[1,2-a]pyridin-2-yl)methyl]-4-oxo-4H-pyrido[1,2-a] pyrimidine-2-carboxamide]
23 | 6.88 | O=C(NCc1cn2cc(CNCCOC(F)(F)F)ccc2n1)c1cc(=O)n2ccccc2n1 [Compound 94, 4-oxo-N-{[6-({[2-(trifluoromethoxy)ethyl]amino}methyl)imidazo [1,2-a]pyridin-2-yl]methyl}-4H-pyrido[1,2-a] pyrimidine-2-carboxamide]

Same assay, conditions: read-out: METTL3_14 RFMS IC50

Row | pIC50 | Structure (SMILES)
24 | 7.19 | O=C(NCc1cn2cc(CNCc3ccc(Cl)cc3)ccc2n1)c1cc(=O)n2ccccc2n1 [Compound 73, N-{[6-({[(4-chlorophenyl)methyl]amino}methyl)imidazo [1,2-a]pyridin-2-yl]methyl}-4-oxo-4H-pyrido [1,2-a]pyrimidine-2-carboxamide]
